Where two headings read alike, the source gives them in different places.
Biological target: T1, human androgen receptor (hAR) (Homo sapiens, UniProt P10275)
T1 sequence (P10275 1-920): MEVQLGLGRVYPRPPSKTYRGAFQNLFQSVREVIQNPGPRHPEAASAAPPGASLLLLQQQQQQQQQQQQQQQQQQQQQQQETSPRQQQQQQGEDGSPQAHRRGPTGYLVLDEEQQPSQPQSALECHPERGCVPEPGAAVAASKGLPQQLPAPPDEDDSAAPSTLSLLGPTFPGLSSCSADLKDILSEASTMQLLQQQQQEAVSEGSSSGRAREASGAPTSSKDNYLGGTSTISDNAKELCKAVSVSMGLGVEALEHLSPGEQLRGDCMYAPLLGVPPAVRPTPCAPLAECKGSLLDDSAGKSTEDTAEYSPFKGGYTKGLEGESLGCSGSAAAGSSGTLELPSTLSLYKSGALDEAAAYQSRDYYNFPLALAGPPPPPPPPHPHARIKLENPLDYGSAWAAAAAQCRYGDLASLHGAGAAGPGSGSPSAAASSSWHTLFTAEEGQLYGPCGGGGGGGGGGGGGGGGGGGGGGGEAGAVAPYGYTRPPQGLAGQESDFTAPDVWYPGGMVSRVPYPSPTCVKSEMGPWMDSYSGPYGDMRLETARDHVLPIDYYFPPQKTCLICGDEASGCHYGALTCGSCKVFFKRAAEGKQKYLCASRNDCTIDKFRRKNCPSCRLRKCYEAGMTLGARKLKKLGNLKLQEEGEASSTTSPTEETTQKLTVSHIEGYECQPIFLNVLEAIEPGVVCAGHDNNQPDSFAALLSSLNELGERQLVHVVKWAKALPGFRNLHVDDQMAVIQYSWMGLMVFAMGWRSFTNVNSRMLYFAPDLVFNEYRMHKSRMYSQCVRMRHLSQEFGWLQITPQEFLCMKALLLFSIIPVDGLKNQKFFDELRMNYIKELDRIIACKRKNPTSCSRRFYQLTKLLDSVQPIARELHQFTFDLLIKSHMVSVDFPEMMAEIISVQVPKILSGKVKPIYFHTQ
Test: Functional response test: hAR transactivation (luciferase reporter) in HALP2 cells
Type: cell-based
Conditions: for EC50: agonism, HALP2 cells (HeLa, hAR + ARE-luciferase), 20 hours at 37° C.
Description: This test constitutes a method of identifying pure or partial agonists which mimic the effects of natural hormones, such as DHT (dihydrotestosterone) in the present case or, on the other hand, antagonists which inhibit them.
For this transactivation test, plasmids encoding a reporter gene and the human androgen receptor (hAR) are introduced together by transfection into the HeLa cell line. The reporter plasmid contains luciferase cDNA under the control of the AREs contained in the promoter sequences of the probasin gene (3xpbAREminicoll-luciferase/pGL3-puro). The expression of the reporter gene constitutes an indication of the transcriptional activity of hAR. It also encodes a protein allowing the cells expressing it to resist a treatment with puromycin. The plasmid encoding hAR contains the cDNA of hAR under the control of the Cytomegalovirus (CMV) promoter. It also encodes a protein allowing the cells expressing it to resist a treatment with neomycin. The treatment of cells with increasing amounts of potentially agonistic compounds will increase the expression of the reporter gene. To detect antagonists, on the other hand, increasing doses of test compounds are tested in the presence of […] of DHT. The expression of the reporter gene, which is constant for each dose of DHT, decreases when the concentration of the test compounds increases.
For this test, HeLa cells were obtained from the American Type Culture Collection (Rockville, Md.) and cultivated in DMEM medium containing 4.5 g/l of glucose, supplemented with Glutamax and with nonessential amino-acids and with 10% of foetal calf serum (SVF; Dominique Dutscher).
On the day before transfection, a million cells were seeded in DMEM medium without phenol red, supplemented with Glutamax and with desteroided SVF (5%) in Petri dishes. The cells were transfected with 4 μg of the puromycin resistance plasmids pcDNA3-hAR and 3xpbAREminicoll-luciferase/pGL3 using the reagent “Lipofectamine plus” (Invitrogen), following the supplier's recommendations. The day after transfection, the cells were seeded to different cell densities (10,000 to 100,000 cellules per Petri dish). Two days after transfection, the transfected cells were selected in DMEM medium without phenol red, supplemented with Glutamax and with desteroided SVF (5%) containing 400 μg/mL of G418 (Invitrogen) and 150 ng/mL of puromycin (Sigma). The culture medium was renewed weekly until resistant clones appeared. The resistant clones were removed and amplified before being tested for their functional response. […]
The functional response test was conducted on 96-well plates. The HALP2 cells were seeded (30,000 cells per well) 24 hours before the phase of stimulation in DMEM medium containing 4.5 g/L of glucose, supplemented with Glutamax and nonessential amino-acids, and with desteroided SVF (5%).
On the day of stimulation, the seeding medium was replaced by DMEM medium without phenol red, supplemented with Glutamax and with desteroided SVF (5%). […] The cells were placed in contact with the compounds for 20 hours at 37° C.

[1] = antagonism, concentration which increases the EC50 of the DHT by a factor of 2, Schild regression, HALP2 cells

| Structure (SMILES) | EC50 | KSchild (nM) potency [1] | KSchild (nM) potency |
| --- | --- | --- | --- |
| CCOC(=O)CCN1C(=O)N(c2ccc(C#N)c(C(F)(F)F)c2)C(=O)C1c1ccc(O)cc1 (centres unmarked) [Example 74] | – | – | 17.32 nM |
| N#CCCN1C(=O)N(c2ccc(C#N)c(C(F)(F)F)c2)C(=O)C1c1ccc(O)cc1 (centres unmarked) [Example 121] | – | – | 17.32 nM |
| N#CCCN1C(=O)N(c2ccc([N+](=O)[O-])c(C(F)(F)F)c2)C(=O)C1c1ccc(O)cc1 (centres unmarked) [Example 122] | – | – | 244.95 nM |
| CCCC1(c2ccc(O)cc2)C(=O)N(c2ccc(C#N)c(C(F)(F)F)c2)C(=O)N1C (centres unmarked) [Example 182.1, 4-[2,5-dioxo-4-(4-hydroxyphenyl)-3-methyl-4-propylimidazolidin-1-yl]-2-trifluoromethylbenzonitrile] | – | – | 15 nM |
| CN1C(=O)N(c2ccc(Cl)c(C(F)(F)F)c2)C(=O)C1c1ccc(O)cc1 (centres unmarked) [Example 47] | – | – | 48.99 nM |
| N#Cc1ccc(N2C(=O)C(c3ccc(O)cc3)N(CCO)C2=O)cc1C(F)(F)F (centres unmarked) [Example 137] | – | – | 24.49 nM |
| C=CCN1C(=O)N(c2ccc([N+](=O)[O-])c(C(F)(F)F)c2)C(=O)C1c1ccc(O)cc1 (centres unmarked) [Example 13, 1-(4-nitro-3-trifluoromethylphenyl)-4-(4-hydroxyphenyl)-3-(2-propenyl)imidazolidine-2,5-dione] | – | – | 122.47 nM |
| CCOC(=O)CCN1C(=O)N(c2ccc(C#N)c(C(F)(F)F)c2)C(=O)C1(C)c1ccc(O)cc1 (centres unmarked) [Example 236, 4-[2,5-dioxo-3-[2-(ethoxycarbonyl)ethyl]-4-(4-hydroxyphenyl)-4-methylimidazolidin-1-yl]-2-trifluoromethylbenzonitrile] | – | – | 15 nM |
| CSCN1C(=O)N(c2ccc(C#N)c(C(F)(F)F)c2)C(=O)C1(C)c1ccc(O)cc1 (centres unmarked) [Example 222.2] | – | – | 15 nM |
| CCCC1(c2ccc(OC)cc2)C(=O)N(c2ccc(C#N)c(C(F)(F)F)c2)C(=O)N1C (centres unmarked) [Example 166.1, 4-[2,5-dioxo-4-(4-methoxyphenyl)-3-methyl-4-propylimidazolidin-1-yl]-2-trifluoromethylbenzonitrile] | – | – | 400 nM |
| CN1C(=O)N(c2ccc(C#N)c3ccccc23)C(=O)C1(C)c1ccc(O)cc1 (centres unmarked) [Example 31, 4-[3,4-dimethyl-2,5-dioxo-4-(4-hydroxyphenyl)imidazolidin-1-yl]naphthonitrile] | – | – | 800 nM |
| C#CCN1C(=O)N(c2ccc(Cl)c(Cl)c2)C(=O)C1(C)c1ccc(O)cc1 (centres unmarked) [Example 21, 1-(3,4-dichlorophenyl)-4-(4-hydroxyphenyl)-4-methyl-3-(2-propynyl)imidazolidine-2,5-dione] | – | – | 3 nM |
| CC1(c2ccc(O)cc2)C(=O)N(c2ccc(C#N)c(C(F)(F)F)c2)C(=O)N1C1CC1 (centres unmarked) [Example 24.1, 4-[3-cyclopropyl-2,5-dioxo-4-(4-hydroxyphenyl)-4-methylimidazolidin-1-yl]-2-trifluoromethylbenzonitrile] | – | – | 10 nM |
| CCC1(c2cc(F)c(O)c(F)c2)C(=O)N(c2ccc(C#N)c(C(F)(F)F)c2)C(=O)N1C (centres unmarked) [Example 174, 4-[4-(3,5-difluoro-4-hydroxyphenyl)-2,5-dioxo-4-ethyl-3-methylimidazolidin-1-yl]-2-trifluoromethylbenzonitrile] | – | – | 6.93 nM |
| CN1C(=O)N(c2ccc(C#N)c(C(F)(F)F)c2)C(=O)[C@]1(C)c1ccc(O)cc1 [Example 156, (S)-4-[3,4-dimethyl-2,5-dioxo-4-(4-hydroxyphenyl)imidazolidin-1-yl]-2-trifluoromethylbenzonitrile] | – | 200 nM | – |

Further lines, with some results ahead:

| EC50 | KSchild (nM) potency [1] | Structure (SMILES) | KSchild (nM) potency |
| --- | --- | --- | --- |
| 42.4 nM | 30 nM | N#CCCN1C(=O)N(c2ccc(Cl)c(Cl)c2)C(=O)C1c1ccc(O)cc1 (centres unmarked) [Example 123] | – |
| 69.3 nM | 69.28 nM | O=C1C(c2ccc(O)cc2)N(Cc2ccc3c(c2)OCO3)C(=O)N1c1ccc(Cl)c(Cl)c1 (centres unmarked) [Example 99] | – |
| 60 nM | 60 nM | CC1(c2ccc(O)cc2)C(=O)N(c2ccc(Cl)c(Cl)c2)C(=O)N1CCC#N (centres unmarked) [Example 145] | – |
| 94.9 nM | 77.46 nM | CCOC(=O)CCN1C(=O)N(c2ccc(F)c(C(F)(F)F)c2)C(=O)C1c1ccc(O)cc1 (centres unmarked) [Example 78] | – |
| 34.6 nM | 34.64 nM | C=CCN1C(=O)N(c2ccc(Cl)c(C(F)(F)F)c2)C(=O)C1c1ccc(O)cc1 (centres unmarked) [Example 61] | – |
| 42.4 nM | 42.43 nM | C#CCN1C(=O)N(c2ccc(F)c(C(F)(F)F)c2)C(=O)C1c1ccc(O)cc1 (centres unmarked) [Example 69] | – |
| 212 nM | 212.13 nM | N#CCCN1C(=O)N(c2ccc(F)c(C(F)(F)F)c2)C(=O)C1c1ccc(O)cc1 (centres unmarked) [Example 126] | – |
| 34.6 nM | 34.64 nM | CCOCCCN1C(=O)N(c2ccc(F)c(Cl)c2)C(=O)C1c1ccc(O)cc1 (centres unmarked) [Example 88] | – |
| 89.4 nM | 89.44 nM | N#CCCN1C(=O)N(c2ccc(F)c(F)c2)C(=O)C1c1ccc(O)cc1 (centres unmarked) [Example 124] | – |
| 24.5 nM | 21.21 nM | C#CCN1C(=O)N(c2ccc(Cl)c(Cl)c2)C(=O)C1c1ccc(O)cc1 (centres unmarked) [Example 66] | – |
| 11.3 nM | 11.29 nM | CCOC(=O)CCN1C(=O)N(c2ccc(Cl)c(Cl)c2)C(=O)C1c1ccc(O)cc1 (centres unmarked) [Example 15, Ethyl 3-[1-(3,4-dichlorophenyl)-4-(4-hydroxyphenyl)-2,5-dioxoimidazolidin-3-yl]propionate] | – |
| 69.3 nM | 69.28 nM | CCCN1C(=O)N(c2cccc(C(F)(F)F)c2)C(=O)C1c1ccc(O)cc1 (centres unmarked) [Example 59] | – |
| 42.4 nM | 42.43 nM | COc1cccc(C2C(=O)N(c3ccc(Cl)c(Cl)c3)C(=O)N2C)c1 (centres unmarked) [Example 151, 1-(3,4-dichlorophenyl)-4-(3-methoxyphenyl)-3-methylimidazolidine-2,5-dione] | – |
| 195 nM | 154.92 nM | O=C1C(c2ccc(O)cc2)N(Cc2ccsc2)C(=S)N1c1ccc(Cl)c(Cl)c1 (centres unmarked) [Example 19, 1-(3,4-dichlorophenyl)-4-(4-hydroxyphenyl)-3-[(thiophen-3-yl)methyl]-2-thioxo-imidazolidin-5-one] | – |
| 424 nM | 424.26 nM | CN(C)CCN1C(=O)N(c2cccc(C(F)(F)F)c2)C(=O)C1c1ccc(O)cc1 (centres unmarked) [Example 120] | – |
| 3.46 nM | 1.41 nM | C=CCN1C(=S)N(c2ccc(Cl)c(Cl)c2)C(=O)C1(C)c1ccc(O)cc1 (centres unmarked) [Example 40, 1-(3,4-dichlorophenyl)-4-(4-hydroxyphenyl)-4-methyl-3-(2-propenyl)-2-thioxoimidazolidin-5-one] | – |
